This assay has as its target T1, human GluN1/GluN2B NMDA receptors (Homo sapiens, UniProt Q13224).
T1 construct: expressed in transfected cells
Description: Calcium flux (FLIPR) assay on cloned human NR1/GluN2B ion channels expressed in mammalian cells (standard and HTS variants). It counts as cell-based. To be noted: cells expressing human GluN1/GluN2B, glutamate and glycine co-agonists. The method in brief: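 Calcium influx read by FLIPR after co-agonist addition (glycine 10 μM, glutamate near EC40) following 5 min compound preincubation, with signal normalized to control wells.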
For orientation: Calcium flux is commonly read through the fluorescence of an indicator in the cells.

Each structure is given as a SMILES string.

T1 sequence (Q13224 27-1484, other chains not shown): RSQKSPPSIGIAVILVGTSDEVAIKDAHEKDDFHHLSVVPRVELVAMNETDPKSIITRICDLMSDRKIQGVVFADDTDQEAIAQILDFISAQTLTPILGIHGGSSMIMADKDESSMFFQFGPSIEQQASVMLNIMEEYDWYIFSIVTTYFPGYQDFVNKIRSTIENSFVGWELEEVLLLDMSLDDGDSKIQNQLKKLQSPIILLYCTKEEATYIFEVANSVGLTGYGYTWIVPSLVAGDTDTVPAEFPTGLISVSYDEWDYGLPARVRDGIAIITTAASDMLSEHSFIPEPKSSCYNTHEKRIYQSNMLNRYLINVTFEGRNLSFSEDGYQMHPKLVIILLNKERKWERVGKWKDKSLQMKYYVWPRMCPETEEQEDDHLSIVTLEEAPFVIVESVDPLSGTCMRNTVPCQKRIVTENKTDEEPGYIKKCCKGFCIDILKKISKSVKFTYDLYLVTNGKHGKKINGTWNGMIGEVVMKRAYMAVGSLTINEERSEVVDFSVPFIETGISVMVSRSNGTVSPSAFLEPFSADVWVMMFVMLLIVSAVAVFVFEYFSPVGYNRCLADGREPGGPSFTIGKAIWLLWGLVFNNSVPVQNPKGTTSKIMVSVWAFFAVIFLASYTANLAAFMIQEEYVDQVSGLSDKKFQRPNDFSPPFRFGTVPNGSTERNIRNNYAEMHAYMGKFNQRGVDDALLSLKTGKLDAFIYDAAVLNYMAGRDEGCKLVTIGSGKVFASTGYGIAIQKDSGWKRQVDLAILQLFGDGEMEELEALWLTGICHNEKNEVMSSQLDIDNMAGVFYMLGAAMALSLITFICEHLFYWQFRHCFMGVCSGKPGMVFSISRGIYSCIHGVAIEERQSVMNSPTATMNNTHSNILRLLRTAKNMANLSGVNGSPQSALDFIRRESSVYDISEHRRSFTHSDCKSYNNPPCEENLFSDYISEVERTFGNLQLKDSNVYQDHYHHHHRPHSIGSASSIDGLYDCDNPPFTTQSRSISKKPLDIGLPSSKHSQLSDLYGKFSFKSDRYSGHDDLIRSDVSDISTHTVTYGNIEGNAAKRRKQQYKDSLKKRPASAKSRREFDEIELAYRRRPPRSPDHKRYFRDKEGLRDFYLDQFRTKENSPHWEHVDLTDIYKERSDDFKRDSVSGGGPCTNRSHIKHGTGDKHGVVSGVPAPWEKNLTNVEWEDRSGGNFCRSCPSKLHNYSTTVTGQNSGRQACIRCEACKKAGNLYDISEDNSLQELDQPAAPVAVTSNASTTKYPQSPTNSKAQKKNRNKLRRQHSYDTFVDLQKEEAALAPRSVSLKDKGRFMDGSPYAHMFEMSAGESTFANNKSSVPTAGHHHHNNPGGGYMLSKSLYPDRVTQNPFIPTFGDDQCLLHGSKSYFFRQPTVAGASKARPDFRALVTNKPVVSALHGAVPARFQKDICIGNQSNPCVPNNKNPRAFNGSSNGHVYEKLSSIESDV

The IC50 is the concentration that gives 50% inhibition. On to `N#Cc1cncc(Cn2ncc3ncc(-c4ccc(F)c(OC(F)F)c4)cc32)c1` [Example 226, 5-[[6-[3-(Difluoromethoxy)-4-fluoro-phenyl]pyrazolo[4,3-b]pyridin-1-yl]methyl]pyridine-3-carbonitrile], for which the IC50 is 68 nM.
In the case of `CC(F)(F)c1cc(-c2cnc3cnn(Cc4cncc(C#N)c4)c3c2)ccc1F` [Example 219, 5-[[6-[3-(1,1-Difluoroethyl)-4-fluoro-phenyl]pyrazolo[4,3-b]pyridin-1-yl]methyl]pyridine-3-carbonitrile] it was 158 nM; in that of `Fc1ccc(-c2cnc3cnn(Cc4ccncn4)c3c2)cc1C(F)F` [Example 270, 6-[3-(Difluoromethyl)-4-fluoro-phenyl]-1-(pyrimidin-4-ylmethyl)pyrazolo[4,3-b]pyridine], 176 nM; in that of `Cc1cc(-c2cnc3cnn(Cc4cccnc4)c3c2)ccc1F` [Example 177, 6-(4-Fluoro-3-methyl-phenyl)-1-(3-pyridylmethyl)pyrazolo[4,3-b]pyridine], 23 nM.
Regarding `Cc1nnc(Cn2ncc3ncc(-c4ccc(F)c(OC(F)F)c4)cc32)o1` [Example 113, 2-[[6-[3-(Difluoromethoxy)-4-fluoro-phenyl]pyrazolo[4,3-b]pyridin-1-yl]methyl]-5-methyl-1,3,4-oxadiazole], the IC50 worked out at 104 nM.
As to `Cc1nnc(Cn2nc(F)c3ncc(-c4ccc(Cl)c(OC(F)F)c4)cc32)o1` [Example 117, 2-[[6-[4-Chloro-3-(difluoromethoxy)phenyl]-3-fluoro-pyrazolo[4,3-b]pyridin-1-yl]methyl]-5-methyl-1,3,4-oxadiazole], the IC50 worked out at 655 nM.
Consider `Fc1cncc(Cn2ncc3ncc(-c4cc(F)c(F)c(F)c4)cc32)c1` [Example 251, 1-[(5-Fluoro-3-pyridyl)methyl]-6-(3,4,5-trifluorophenyl)pyrazolo[4,3-b]pyridine], for which the 50% inhibitory concentration (IC50) was determined as 25 nM.
As for `Fc1ccc(-c2cnc3cnn(Cc4nncs4)c3c2)cc1C(F)F` [Example 121, 2-[[6-[3-(Difluoromethyl)-4-fluoro-phenyl]pyrazolo[4,3-b]pyridin-1-yl]methyl]-1,3,4-thiadiazole], the IC50 was 25 nM.
As for `Cn1cnnc1Cn1ncc2ncc(-c3ccc(F)c(C(F)F)c3)cc21` [Example 74, 6-[3-(Difluoromethyl)-4-fluoro-phenyl]-1-[(4-methyl-1,2,4-triazol-3-yl)methyl]pyrazolo[4,3-b]pyridine], the IC50 amounted to 111 nM.
In the case of `Fc1ccc(-c2cnc3cnn(Cc4cncc(OC(F)F)c4)c3c2)cc1C(F)F` [Example 210, 1-[[5-(Difluoromethoxy)-3-pyridyl]methyl]-6-[3-(difluoromethyl)-4-fluoro-phenyl]pyrazolo[4,3-b]pyridine], the IC50 is 110 nM.
Turning to `Fc1ccc(-c2cnc3cnn(Cc4nnc(C(F)(F)F)o4)c3c2)cc1OC(F)F` [Example 115, 2-[[6-[3-(Difluoromethoxy)-4-fluoro-phenyl]pyrazolo[4,3-b]pyridin-1-yl]methyl]-5-(trifluoromethyl)-1,3,4-oxadiazole], the IC50 is 414 nM.
For the molecule `Cc1ccc(Cn2ncc3ncc(-c4ccc(F)c(C(F)F)c4)cc32)nn1` [Example 262, 6-[3-(Difluoromethyl)-4-fluoro-phenyl]-1-[(6-methylpyridazin-3-yl)methyl]pyrazolo[4,3-b]pyridine], the IC50 stood at 273 nM.
`FC(F)(F)c1cccc(-c2cnc3cnn(Cc4ncccn4)c3c2)c1` [Example 1, 1-(Pyrimidin-2-ylmethyl)-6-[3-(trifluoromethyl)phenyl]pyrazolo[4,3-b]pyridine]: the IC50 came to 800 nM.
To `Fc1ccc(-c2cnc3cnn(Cc4cncc(C(F)(F)F)c4)c3c2)cc1C(F)F` [Example 211, 6-[3-(Difluoromethyl)-4-fluoro-phenyl]-1-[[5-(trifluoromethyl)-3-pyridyl]methyl]pyrazolo[4,3-b]pyridine] belongs 47 nM; to `Fc1ccc(-c2cnc3cnn(Cc4cnccn4)c3c2)cc1OC(F)F` [Example 273, 6-[3-(Difluoromethoxy)-4-fluoro-phenyl]-1-(pyrazin-2-ylmethyl)pyrazolo[4,3-b]pyridine], 320 nM.

(Values after patent publication US11530210B2, “Substituted heteroaromatic pyrazolo-pyridines and their use as GLUN2B receptor modulators” (JANSSEN PHARMACEUTICA NV, priority 2019, dated 2022).)
